According to US20090227575A1, “7H-PYRROLO[2,3-H]QUINAZOLINE COMPOUNDS, THEIR USE AS mTOR KINASE AND PI3 KINASE INHIBITORS, AND THEIR [sequence]” (Wyeth, priority 2008, published 2009):
Where two headings read alike, the source gives them in different places.

Tests used:
Human mTOR [1] = biological target: T1, Human mTOR (Homo sapiens, UniProt P42345); conditions: read-out: mTOR enzymes IC50; cited from earlier work
[2] = system: human tumor xenograft models; conditions: cited from earlier work
human SMG-1 (hSMG-1) = human SMG-1 (hSMG-1) (Homo sapiens, UniProt Q96Q15); experiment: hSMG-1 kinase assay (DELFIA); format: biochemical; conditions: read-out: hSMG1 IC50
PI3K-alpha = PI3K-alpha (Homo sapiens, UniProt P42336); experiment: PI3K-alpha fluorescence polarization assay; format: biochemical; conditions: read-out: PI3 Kinase α IC50
Method in brief: (§1)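 Diluted enzyme and compound (1% DMSO) reacted with diC8 PIP2 and ATP substrate in 20 mM HEPES pH 7.5, 2 mM MgCl2, 0.05% CHAPS for 30–60 min. Stopped with EDTA buffer holding 10 nM TAMRA probe and 70 nM GST-GRP. FP (mP) read after 30–90 min against zero-time and no-enzyme controls.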

PI3K-gamma = PI3K-gamma (Homo sapiens, UniProt P48736); experiment: PI3K-gamma fluorescence polarization assay; format: biochemical; conditions: read-out: PI3 Kinase γ IC50
Method in brief: as §1

Human mTOR [3] = biological target: T1, Human mTOR; experiment: mTOR kinase assay (DELFIA format, purified enzyme); format: biochemical; design: FLAG
hSMG-1 = hSMG-1 (Homo sapiens, UniProt Q96Q15); conditions: read-out: hSMG-1 kinase activity IC50; cited from earlier work
[4] = system: human breast MDA468 tumor cell line; experiment: In vitro cell culture growth assay (MTS), MDA468; format: cell-based; conditions: 72 h, three days after drug treatment
Protocol: (§2) Cell Lines used are human prostate LNCap and human breast MDA468 tumor cell lines. Cells are plated in 96-well culture plates at approximately 3000 cells per well. […] Three days after drug treatment, viable cell densities are determined by cell mediated metabolic conversion of the dye MTS, a well-established indicator of cell proliferation in vitro. Cell growth assays are performed using kits purchased from Promega Corporation (Madison, Wis.), following the protocol provided by the vendor. Measuring absorbance at 490 nm generates MTS assay results. Compound effect on cell proliferation is assessed relative to untreated control cell growth.

[5] = system: human prostate LNCap tumor cell line; experiment: In vitro cell culture growth assay (MTS), LNCap; format: cell-based; conditions: 72 h, three days after drug treatment
Protocol: as §2

[6] = system: acute lymphoblastic leukemia xenograft; conditions: NOS/SCID xenograft mouse model of acute lymphoblastic leukemia; cited from earlier work

Sequence of human SMG-1 (hSMG-1) (Q96Q15 whole entry): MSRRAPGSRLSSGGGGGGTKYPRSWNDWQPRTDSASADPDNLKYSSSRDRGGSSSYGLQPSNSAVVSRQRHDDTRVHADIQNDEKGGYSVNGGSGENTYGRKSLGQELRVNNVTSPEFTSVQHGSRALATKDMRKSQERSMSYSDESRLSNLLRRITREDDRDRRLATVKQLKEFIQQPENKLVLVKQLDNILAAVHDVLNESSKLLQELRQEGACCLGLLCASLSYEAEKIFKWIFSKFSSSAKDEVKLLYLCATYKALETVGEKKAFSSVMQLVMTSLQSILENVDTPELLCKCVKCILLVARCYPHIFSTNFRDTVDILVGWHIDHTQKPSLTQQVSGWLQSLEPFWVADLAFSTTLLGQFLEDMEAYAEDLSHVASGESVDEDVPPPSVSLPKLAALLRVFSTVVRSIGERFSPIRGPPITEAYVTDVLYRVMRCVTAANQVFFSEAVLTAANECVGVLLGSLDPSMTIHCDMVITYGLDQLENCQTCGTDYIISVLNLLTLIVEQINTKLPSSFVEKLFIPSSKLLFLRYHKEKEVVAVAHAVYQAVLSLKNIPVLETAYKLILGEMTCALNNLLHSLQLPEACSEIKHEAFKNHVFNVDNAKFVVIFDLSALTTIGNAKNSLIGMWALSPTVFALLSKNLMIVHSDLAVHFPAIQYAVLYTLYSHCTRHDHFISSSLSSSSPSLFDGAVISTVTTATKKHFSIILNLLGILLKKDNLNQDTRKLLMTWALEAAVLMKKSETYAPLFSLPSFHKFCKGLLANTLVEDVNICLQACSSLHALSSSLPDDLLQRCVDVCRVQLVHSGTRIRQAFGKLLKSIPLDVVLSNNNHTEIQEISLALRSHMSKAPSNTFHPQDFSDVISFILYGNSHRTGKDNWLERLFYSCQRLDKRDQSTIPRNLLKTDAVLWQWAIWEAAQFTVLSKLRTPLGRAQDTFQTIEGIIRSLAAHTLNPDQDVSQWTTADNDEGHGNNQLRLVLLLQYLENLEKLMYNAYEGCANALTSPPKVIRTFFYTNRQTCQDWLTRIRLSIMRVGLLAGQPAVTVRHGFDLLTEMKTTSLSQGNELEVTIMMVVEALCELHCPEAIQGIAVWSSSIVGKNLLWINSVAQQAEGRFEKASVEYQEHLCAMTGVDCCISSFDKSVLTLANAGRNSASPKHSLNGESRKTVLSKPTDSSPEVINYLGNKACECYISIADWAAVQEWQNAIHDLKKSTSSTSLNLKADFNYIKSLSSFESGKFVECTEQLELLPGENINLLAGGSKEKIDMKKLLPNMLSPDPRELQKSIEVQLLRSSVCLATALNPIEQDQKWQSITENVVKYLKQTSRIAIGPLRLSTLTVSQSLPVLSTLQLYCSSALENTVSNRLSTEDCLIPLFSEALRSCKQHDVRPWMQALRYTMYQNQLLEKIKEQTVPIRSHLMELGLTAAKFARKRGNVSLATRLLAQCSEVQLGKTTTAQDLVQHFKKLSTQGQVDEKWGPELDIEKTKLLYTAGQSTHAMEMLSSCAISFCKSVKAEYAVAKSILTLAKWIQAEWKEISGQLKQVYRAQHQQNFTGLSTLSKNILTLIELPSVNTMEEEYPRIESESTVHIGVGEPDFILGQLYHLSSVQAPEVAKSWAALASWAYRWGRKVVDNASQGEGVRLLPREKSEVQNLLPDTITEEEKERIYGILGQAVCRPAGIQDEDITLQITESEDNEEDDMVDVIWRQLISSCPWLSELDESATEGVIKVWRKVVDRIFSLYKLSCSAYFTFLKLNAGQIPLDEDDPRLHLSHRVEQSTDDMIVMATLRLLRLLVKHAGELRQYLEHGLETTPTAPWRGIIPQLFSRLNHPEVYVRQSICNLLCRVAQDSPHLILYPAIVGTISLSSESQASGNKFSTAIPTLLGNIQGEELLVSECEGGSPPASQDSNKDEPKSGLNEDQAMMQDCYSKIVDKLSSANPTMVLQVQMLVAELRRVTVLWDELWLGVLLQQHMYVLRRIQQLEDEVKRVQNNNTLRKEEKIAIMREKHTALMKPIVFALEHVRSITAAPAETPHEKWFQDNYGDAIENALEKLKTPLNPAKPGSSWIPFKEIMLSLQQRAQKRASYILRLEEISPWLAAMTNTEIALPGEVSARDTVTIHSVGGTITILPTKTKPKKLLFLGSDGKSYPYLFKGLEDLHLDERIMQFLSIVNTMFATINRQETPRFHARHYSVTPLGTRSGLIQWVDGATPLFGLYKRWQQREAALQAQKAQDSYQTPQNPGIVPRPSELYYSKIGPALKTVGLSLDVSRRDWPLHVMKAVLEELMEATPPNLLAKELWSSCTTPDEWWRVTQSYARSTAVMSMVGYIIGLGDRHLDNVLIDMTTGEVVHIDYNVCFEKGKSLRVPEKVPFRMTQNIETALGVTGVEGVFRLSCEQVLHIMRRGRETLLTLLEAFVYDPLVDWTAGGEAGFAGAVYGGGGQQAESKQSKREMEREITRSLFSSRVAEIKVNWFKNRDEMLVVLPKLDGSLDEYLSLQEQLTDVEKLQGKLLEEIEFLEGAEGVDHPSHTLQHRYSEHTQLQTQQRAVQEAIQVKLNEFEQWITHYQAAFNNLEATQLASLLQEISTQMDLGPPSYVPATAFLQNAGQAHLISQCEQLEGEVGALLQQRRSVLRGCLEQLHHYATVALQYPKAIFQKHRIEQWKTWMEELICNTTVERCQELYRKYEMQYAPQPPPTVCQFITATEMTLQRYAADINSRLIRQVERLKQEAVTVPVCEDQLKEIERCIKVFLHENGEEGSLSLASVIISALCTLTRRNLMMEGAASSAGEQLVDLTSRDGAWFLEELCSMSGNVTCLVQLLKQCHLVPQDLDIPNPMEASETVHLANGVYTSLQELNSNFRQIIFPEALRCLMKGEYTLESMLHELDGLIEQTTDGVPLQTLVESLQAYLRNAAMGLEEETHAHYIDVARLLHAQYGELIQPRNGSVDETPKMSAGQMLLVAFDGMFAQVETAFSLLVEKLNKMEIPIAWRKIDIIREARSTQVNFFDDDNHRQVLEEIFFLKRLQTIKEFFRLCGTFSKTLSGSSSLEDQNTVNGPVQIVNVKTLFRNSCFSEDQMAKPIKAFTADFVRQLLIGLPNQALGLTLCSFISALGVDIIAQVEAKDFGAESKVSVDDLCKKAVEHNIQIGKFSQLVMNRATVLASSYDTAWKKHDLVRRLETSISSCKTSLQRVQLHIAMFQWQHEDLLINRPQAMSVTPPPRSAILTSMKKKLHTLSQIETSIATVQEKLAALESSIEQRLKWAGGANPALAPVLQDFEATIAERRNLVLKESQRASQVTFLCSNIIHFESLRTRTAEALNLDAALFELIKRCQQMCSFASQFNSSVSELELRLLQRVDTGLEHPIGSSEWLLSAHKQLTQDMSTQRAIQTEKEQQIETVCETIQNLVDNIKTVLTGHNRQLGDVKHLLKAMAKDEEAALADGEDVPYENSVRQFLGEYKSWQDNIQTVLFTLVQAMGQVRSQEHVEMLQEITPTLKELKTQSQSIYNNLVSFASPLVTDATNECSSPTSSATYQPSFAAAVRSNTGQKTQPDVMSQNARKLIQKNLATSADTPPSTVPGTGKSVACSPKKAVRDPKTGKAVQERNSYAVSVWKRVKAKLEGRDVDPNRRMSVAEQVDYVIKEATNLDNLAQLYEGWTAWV
Sequence of PI3K-gamma (P48736 whole entry, species assumed): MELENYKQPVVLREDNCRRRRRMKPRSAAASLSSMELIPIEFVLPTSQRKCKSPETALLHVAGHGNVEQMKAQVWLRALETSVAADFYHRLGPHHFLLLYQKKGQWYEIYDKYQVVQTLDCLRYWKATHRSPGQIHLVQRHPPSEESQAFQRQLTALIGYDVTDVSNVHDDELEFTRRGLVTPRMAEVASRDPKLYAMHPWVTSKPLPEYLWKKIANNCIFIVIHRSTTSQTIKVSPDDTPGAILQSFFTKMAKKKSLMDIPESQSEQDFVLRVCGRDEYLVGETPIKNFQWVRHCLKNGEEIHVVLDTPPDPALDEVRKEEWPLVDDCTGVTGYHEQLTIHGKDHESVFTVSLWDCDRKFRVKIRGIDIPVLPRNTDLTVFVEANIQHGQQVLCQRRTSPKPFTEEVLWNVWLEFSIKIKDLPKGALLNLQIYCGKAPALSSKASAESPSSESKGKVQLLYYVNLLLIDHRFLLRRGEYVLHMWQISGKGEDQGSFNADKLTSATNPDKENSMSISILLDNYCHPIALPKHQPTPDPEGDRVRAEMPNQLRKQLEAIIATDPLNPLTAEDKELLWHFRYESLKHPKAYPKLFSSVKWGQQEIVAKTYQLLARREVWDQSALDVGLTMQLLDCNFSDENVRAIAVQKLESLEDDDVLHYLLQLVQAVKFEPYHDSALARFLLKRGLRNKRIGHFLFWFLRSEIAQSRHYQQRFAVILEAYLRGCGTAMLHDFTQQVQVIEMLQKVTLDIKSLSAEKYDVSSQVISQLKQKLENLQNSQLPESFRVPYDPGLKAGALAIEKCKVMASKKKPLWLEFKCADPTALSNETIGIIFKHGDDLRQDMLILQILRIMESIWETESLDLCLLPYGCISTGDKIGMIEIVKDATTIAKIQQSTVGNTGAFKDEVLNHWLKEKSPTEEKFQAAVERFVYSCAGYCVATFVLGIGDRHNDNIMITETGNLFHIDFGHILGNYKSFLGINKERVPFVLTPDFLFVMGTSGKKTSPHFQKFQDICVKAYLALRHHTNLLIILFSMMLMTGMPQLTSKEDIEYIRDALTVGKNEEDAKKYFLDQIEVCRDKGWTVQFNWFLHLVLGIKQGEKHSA
Sequence of hSMG-1 (Q96Q15 whole entry): as the sequence (Q96Q15 whole entry) above

Row | Compound | IC50 (human SMG-1 (hSMG-1)) | IC50 (Human mTOR [3]; read-out: TOR Kinase IC50) | further results
1 | FC(F)c1nc2ccccc2n1-c1nc(N2CCOCC2)nc(N2CCOCC2)n1 [ZSTK474, 2-(2-difluoromethylbenzoimidazol-1-yl)-4,6-dimorpholino-1,3,5-triazine] |  |  | IC50 (Human mTOR [1]): > 10000 nM; tumor growth inhibition ([2]; chronic oral administration, 400 mg/kg, A549, PC-3, WiDr): completely inhibited growth
2 | Cn1c(=O)c2c(ncn2C)n(C)c1=O [caffeine] |  |  | IC50 (hSMG-1): 300000 nM
3 | Cn1c(=O)n(-c2ccc(C(C)(C)C#N)cc2)c2c3cc(-c4cnc5ccccc5c4)ccc3ncc21 [NVP-BEZ-235, 2-methyl-2-(4-(3-methyl-2-oxo-8-(quinolin-3-yl)-2,3-dihydro-1H-imidazo[4,5-c]quinolin-1-yl)phenyl)propanenitrile] |  |  | activity against human tumor models ([2]; prostrate (PC-3) and glioblastoma (U-87)): demonstrated activity
4 | Oc1cccc(-c2nc(N3CCOCC3)c3oc4ncccc4c3n2)c1 [PI103, 3-(4-(4-morpholinyl)pyrido[3′,2′:4,5]furo[3,2-d]pyrimidin-2-yl)phenol] |  |  | activity against human tumor models ([2]; I.P. dosing in mice, U87MG, PC3, MDA-MB-468, MDA-MB-435, HCT 116, SKOV3, IGROV-1): demonstrated activity
5 | CN(C)CCn1ccc2c3nc(-c4ccc(NC(=O)Nc5cccnc5)cc4)nc(N4CCOCC4)c3ccc21 [Example 111, 1-(4-{7-[2-(dimethylamino)ethyl]-4-morpholin-4-yl-7H-pyrrolo[2,3-h]quinazolin-2-yl}phenyl)-3-pyridin-3-ylurea] | 290 nM | 15 nM | IC50 (PI3K-alpha): 118 nM; IC50 (PI3K-gamma): 860 nM
6 | CS(=O)(=O)n1ccc2c3nc(-c4ccc(NC(=O)Nc5cccnc5)cc4)nc(N4CCOCC4)c3ccc21 [Example 85, 1-{4-[7-(methylsulfonyl)-4-morpholin-4-yl-7H-pyrrolo[2,3-h]quinazolin-2-yl]phenyl}-3-pyridin-3-ylurea] | 160 nM |  | IC50 (PI3K-alpha): 22 nM; IC50 (PI3K-gamma): 142 nM; IC50 [4]: 70 nM; IC50 [5]: 48 nM
7 | CC(=O)Nc1ccc(-c2nc(N3CCOCC3)c3ccc4c(ccn4CCN(C)C)c3n2)cc1 [Example 112, N-(4-{7-[2-(dimethylamino)ethyl]-4-morpholin-4-yl-7H-pyrrolo[2,3-h]quinazolin-2-yl}phenyl)acetamide] | > 20000 nM | 2800 nM | 
8 | COC[C@H]1OC(=O)c2coc3c2[C@@]1(C)C1=C(C3=O)[C@@H]2CCC(=O)[C@@]2(C)C[C@H]1OC(C)=O [Wortmannin] |  |  | IC50 (hSMG-1): ~60 nM
9 | CO[C@H]1C[C@@H]2CC[C@@H](C)[C@@](O)(O2)C(=O)C(=O)N2CCCC[C@H]2C(=O)O[C@H]([C@H](C)C[C@@H]2CC[C@@H](OC(=O)C(C)(CO)CO)[C@H](OC)C2)CC(=O)[C@H](C)/C=C(\C)[C@@H](O)[C@@H](OC)C(=O)[C@H](C)C[C@H](C)/C=C/C=C/C=C/1C [Torisel] |  |  | activity in xenograft mouse model [6]: active
10 | COC(=O)Nc1ccc(-c2nc(N3CCOCC3)c3ccc4c(ccn4CCN(C)C)c3n2)cc1 [Example 98, methyl (4-{7-[2-(dimethylamino)ethyl]-4-morpholin-4-yl-7H-pyrrolo[2,3-h]quinazolin-2-yl}phenyl)carbamate] | > 20000 nM | 2000 nM | 
11 | CC(=O)c1cccc(NC(=O)Nc2ccc(-c3nc(N4CCOCC4)c4ccc5c(ccn5C)c4n3)cc2)c1 [Example 114, 1-(3-acetylphenyl)-3-[4-(7-methyl-4-morpholin-4-yl-7H-pyrrolo[2,3-h]quinazolin-2-yl)phenyl]urea] | 10500 nM |  | IC50 (Human mTOR [3]): 5550 nM

More lines, main results first:

Row | IC50 (human SMG-1 (hSMG-1)) | IC50 (Human mTOR [3]; read-out: TOR Kinase IC50) | Compound | further results
12 | 490 nM | 67 nM | CNC(=O)Nc1ccc(-c2nc(N3CCOCC3)c3ccc4c(ccn4CCN(C)C)c3n2)cc1 [Example 113, 1-(4-{7-[2-(dimethylamino)ethyl]-4-morpholin-4-yl-7H-pyrrolo[2,3-h]quinazolin-2-yl}phenyl)-3-methylurea] | IC50 (PI3K-alpha): 427 nM; IC50 (PI3K-gamma): 3090 nM
13 | 140 nM | 26 nM | CCCNC(=O)Nc1ccc(-c2nc(N3CCOCC3)c3ccc4c(ccn4S(C)(=O)=O)c3n2)cc1 [Example 121, 1-{4-[7-(methylsulfonyl)-4-morpholin-4-yl-7H-pyrrolo[2,3-h]quinazolin-2-yl]phenyl}-3-propylurea] | IC50 [4]: 30000 nM; IC50 [5]: 2000 nM
14 | 43 nM | 2 nM | CNC(=O)Nc1ccc(-c2nc(N3CCOCC3)c3ccc4c(ccn4S(C)(=O)=O)c3n2)cc1 [Example 110, 1-methyl-3-{4-[7-(methylsulfonyl)-4-morpholin-4-yl-7H-pyrrolo[2,3-h]quinazolin-2-yl]phenyl}urea] | IC50 (PI3K-alpha): 95 nM; IC50 (PI3K-gamma): 1910 nM; IC50 [4]: 1700 nM; IC50 [5]: 880 nM
15 | 200 nM |  | CCNC(=O)Nc1ccc(-c2nc(N3CCOCC3)c3ccc4c(ccn4S(C)(=O)=O)c3n2)cc1 [Example 89, 1-ethyl-3-{4-[7-(methylsulfonyl)-4-morpholin-4-yl-7H-pyrrolo[2,3-h]quinazolin-2-yl]phenyl}urea] | IC50 [4]: 1900 nM; IC50 [5]: 690 nM
16 | > 20000 nM | 1800 nM | CCNC(=O)Nc1cccc(-c2nc(N3CCOCC3)c3ccc4c(ccn4C)c3n2)c1 [Example 128, 1-ethyl-3-[3-(7-methyl-4-morpholin-4-yl-7H-pyrrolo[2,3-h]quinazolin-2-yl)phenyl]urea] | 
17 | 16000 nM | 500 nM | Cn1ccc2c3nc(-c4ccc(NC(=O)NCC5CC5)cc4)nc(N4CCOCC4)c3ccc21 [Example 100, 1-(cyclopropylmethyl)-3-[4-(7-methyl-4-morpholin-4-yl-7H-pyrrolo[2,3-h]quinazolin-2-yl)phenyl]urea] | 
18 | 6500 nM | 1260 nM | Cn1ccc2c3nc(-c4ccc(NC(=O)NCC(F)(F)F)cc4)nc(N4CCOCC4)c3ccc21 [Example 119, 1-[4-(7-methyl-4-morpholin-4-yl-7H-pyrrolo[2,3-h]quinazolin-2-yl)phenyl]-3-(2,2,2-trifluoroethyl)urea] | 
19 | 3300 nM | 625 nM | Cn1ccc2c3nc(-c4ccc(NC(=O)NCCc5ccncc5)cc4)nc(N4CCOCC4)c3ccc21 [Example 120, 1-[4-(7-methyl-4-morpholin-4-yl-7H-pyrrolo[2,3-h]quinazolin-2-yl)phenyl]-3-(2-pyridin-4-ylethyl)urea] | 
20 | > 20000 nM | 600 nM | Cn1ccc2c3nc(-c4ccc(NC(=O)NC5CCS(=O)(=O)C5)cc4)nc(N4CCOCC4)c3ccc21 (stereo not drawn) [Example 117, 1-(1,1-dioxidotetrahydrothiophen-3-yl)-3-[4-(7-methyl-4-morpholin-4-yl-7H-pyrrolo[2,3-h]quinazolin-2-yl)phenyl]urea] | 
21 | > 20000 nM | 2400 nM | Cn1ccc2c3nc(-c4ccc(NC(=O)NCCCN5CCCC5)cc4)nc(N4CCOCC4)c3ccc21 [Example 104] | 
